Assay results as given in US20070276011A1, “Plasminogen Activator Inhibitor-1 Inhibitor” (priority 2003, published 2007).

Biological target: recombinant human PAI-1 (Homo sapiens, UniProt P05121)
Assay: PAI-1 inhibitory activity, Test Method A (tPA fluorogenic substrate, Tris buffer pH8.0, 37 C)
Assay type: biochemical
Settings: 25 μM test compound; Test Method A

recombinant human PAI-1, sequence (P05121 24-402): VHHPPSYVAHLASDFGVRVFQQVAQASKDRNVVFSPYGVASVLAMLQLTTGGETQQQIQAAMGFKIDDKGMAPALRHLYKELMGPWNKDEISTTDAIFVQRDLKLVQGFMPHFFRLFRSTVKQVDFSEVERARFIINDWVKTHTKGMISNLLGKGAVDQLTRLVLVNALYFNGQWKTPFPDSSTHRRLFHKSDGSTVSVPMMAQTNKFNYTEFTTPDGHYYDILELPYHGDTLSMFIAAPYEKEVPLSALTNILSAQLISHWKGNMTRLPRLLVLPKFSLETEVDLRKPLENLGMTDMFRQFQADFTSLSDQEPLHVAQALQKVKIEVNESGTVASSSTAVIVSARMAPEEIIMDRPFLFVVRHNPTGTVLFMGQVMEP

SMILES | Inhibitory Ratio at 25 μM (%)
COc1ccc(NC(=O)c2cccc(C=C3SC(=O)N(Cc4ccc(Cl)c(Cl)c4)C3=O)c2)cc1OC [compound 357] | 82
O=C(O)c1cc(C=C2SC(=O)N(Cc3ccc(Cl)c(Cl)c3)C2=O)ccc1O [compound 358, 5-(3-Carboxy-4-hydroxybenzylidene)-3-(3,4-dichlorobenzyl)thiazolidine-2,4-dione] | 95
COc1ccc(C=C2SC(=O)N(Cc3ccc(Cl)c(Cl)c3)C2=O)cc1NC(=O)c1ccc(O)c(O)c1 [compound 359, 5-[4-Methoxy-3-(3,4-dihydroxybenzoylamino)benzylidene]-3-(3,4-dichlorobenzyl)thiazolidine-2,4-dione] | >99
COc1ccc(NC(=O)c2cc(C=C3SC(=O)N(Cc4ccc(Cl)c(Cl)c4)C3=O)cc(OC)c2O)cc1C(F)(F)F [compound 360] | >99
COc1cc(C=C2SC(=O)N(Cc3ccc(Cl)c(Cl)c3)C2=O)cc(C(=O)Nc2ccc(O)c(C)c2)c1O [compound 361] | >99
COc1ccc(COC(=O)c2cc(C=C3SC(=O)N(Cc4ccc(-c5ccccc5)cc4)C3=O)ccc2O)cc1 [compound 362, 5-[3-(4-Methoxybenzyloxycarbonyl)-4-hydroxybenzylidene]-3-(4-phenylbenzyl)thiazolidine-2,4-dione] | >99
O=C(OCc1ccccc1)c1cc(C=C2SC(=O)N(Cc3cc(C(F)(F)F)ccc3C(F)(F)F)C2=O)ccc1O [compound 363, 5-(3-Benzyloxycarbonyl-4-hydroxybenzylidene)-3-[2,5-bis(trifluoromethyl)benzyl]thiazolidine-2,4-dione] | 84
COc1ccc(NC(=O)c2cc(C=C3SC(=O)N(Cc4ccc(-c5ccccc5)cc4)C3=O)ccc2O)cc1OC [compound 371, 5-[4-Hydroxy-3-(3,4-dimethoxyphenylcarbamoyl)benzylidene]-3-(4-phenylbenzyl)thiazolidine-2,4-dione] | >99
O=C(Nc1cc(C=C2SC(=O)N(Cc3ccc(Cl)c(Cl)c3)C2=O)ccc1O)c1ccc(O)c(O)c1 [compound 380] | >99
COc1ccc(C(=O)Nc2cc(C=C3SC(=O)N(Cc4ccc(Cl)c(Cl)c4)C3=O)ccc2OC)cc1 [compound 381, 5-[4-methoxy-3-(4-methoxybenzoylamino)benzylidene]-3-(3,4-dichlorobenzyl)thiazolidine-2,4-dione] | 27
COc1ccc(NC(=O)c2cc(C=C3SC(=O)N(Cc4cc(F)cc(F)c4)C3=O)ccc2O)cc1OC [compound 385, 5-[4-Hydroxy-3-(3,4-dimethoxyphenylcarbamoyl)benzylidene]-3-(3,5-difluorobenzyl)thiazolidine-2,4-dione] | >99
O=C(Nc1ccc(O)c(O)c1)c1cc(C=C2SC(=O)N(Cc3cc(F)cc(F)c3)C2=O)ccc1O [compound 386] | 98
O=C(O)c1ccc(NC(=O)c2cccc(C=C3SC(=O)N(Cc4ccc(Cl)c(Cl)c4)C3=O)c2)cc1 [compound 389, 5-[3 (4-Carboxyphenylcarbamoyl)benzylidene]-3-(3,4-dichlorobenzyl)thiazolidine-2,4-dione] | >99
Cc1cc(C=C2SC(=O)N(Cc3ccc(Cl)c(Cl)c3)C2=O)cc(C(=O)O)c1O [compound 390, 5-(3-Methyl-4-hydroxy-5-carboxybenzylidene)-3-(3,4-dichlorobenzyl)thiazolidine-2,4-dione] | >99
COc1ccc(NC(=O)c2cc(C=C3SC(=O)N(Cc4cc(C)cc(C)c4)C3=O)ccc2O)cc1OC [compound 393, 5-[4-Hydroxy-3-(3,4-dimethoxyphenylcarbamoyl)benzylidene]-3-(3,5-dimethylbenzyl)thiazolidine-2,4-dione] | >99
Cc1cc(C)cc(CN2C(=O)SC(=Cc3ccc(O)c(C(=O)Nc4ccc(O)c(O)c4)c3)C2=O)c1 [compound 394] | >99
COc1ccc(NC(=O)c2cc(C=C3SC(=O)N(Cc4cc(Cl)cc(Cl)c4)C3=O)ccc2O)cc1OC [compound 395, 5-[4-Hydroxy-3-(3,4-dimethoxyphenylcarbamoyl)benzylidene]-3-(3,5-dichlorobenzyl)thiazolidine-2,4-dione] | 88
COc1ccc(NC(=O)c2cc(C=C3SC(=O)N(Cc4ccc(Cl)cc4Cl)C3=O)ccc2O)cc1OC [compound 397, 5-[4-Hydroxy-3-(3,4-dimethoxyphenylcarbamoyl)benzylidene]-3-(2,4-dichlorobenzyl)thiazolidine-2,4-dione] | >99
COc1ccc(NC(=O)c2cc(C=C3SC(=O)N(Cc4cccc(Oc5ccccc5)c4)C3=O)ccc2O)cc1OC [compound 399, 5-[4-Hydroxy-3-(3,4-dimethoxyphenylcarbamoyl)benzylidene]-3-(3-phenoxybenzyl)thiazolidine-2,4-dione] | >99
O=C(Nc1cc(C(F)(F)F)ccc1C(F)(F)F)c1cc(C=C2SC(=O)N(Cc3ccc(Cl)c(Cl)c3)C2=O)ccc1O [compound 403] | 58
O=C(Nc1cc(C(F)(F)F)cc(C(F)(F)F)c1)c1cc(C=C2SC(=O)N(Cc3ccc(Cl)c(Cl)c3)C2=O)ccc1O [compound 404] | >99

Now from value to compound:

Inhibitory Ratio at 25 μM (%) | SMILES
72 | O=C(Nc1ccc(O)cc1)c1cc(C=C2SC(=O)N(Cc3ccc(Cl)c(Cl)c3)C2=O)ccc1O [compound 354]
>99 | COc1cccc(NC(=O)c2cc(C=C3SC(=O)N(Cc4ccc(Cl)c(Cl)c4)C3=O)ccc2O)c1 [compound 355, 5-[4-hydroxy-3-(3-methoxyphenylcarbamoyl)benzylidene]-3-(3,4-dichlorobenzyl)thiazolidine-2,4-dione]
>99 | O=C(Nc1cccc(O)c1)c1cc(C=C2SC(=O)N(Cc3ccc(Cl)c(Cl)c3)C2=O)ccc1O [compound 356]
>99 | O=C(Nc1cc(C=C2SC(=O)N(Cc3ccc(Cl)c(Cl)c3)C2=O)ccc1O)c1ccc(OC(F)(F)F)cc1 [compound 365]
>99 | O=C(Nc1cccc(C=C2SC(=O)N(Cc3ccc(Cl)c(Cl)c3)C2=O)c1)c1ccc(O)c(O)c1 [compound 370]
>99 | COc1ccc(NC(=O)c2cc(C=C3SC(=O)N(Cc4cc(C(F)(F)F)ccc4C(F)(F)F)C3=O)ccc2O)cc1OC [compound 372, 5-[4-Hydroxy-3-(3,4-dimethoxyphenylcarbamoyl)benzylidene]-3-[2,5-bis(trifluoromethyl)benzyl]thiazolidine-2,4-dione]
93 | O=C(Nc1ccc(O)c(O)c1)c1cc(C=C2SC(=O)N(Cc3ccc(-c4ccccc4)cc3)C2=O)ccc1O [compound 373]
>99 | O=C(Nc1ccc(O)c(O)c1)c1cc(C=C2SC(=O)N(Cc3cc(C(F)(F)F)ccc3C(F)(F)F)C2=O)ccc1O [compound 374]
63 | COc1ccc(NC(=O)c2cc(C=C3SC(=O)N(CCc4ccc(Cl)cc4)C3=O)ccc2O)cc1OC [compound 375, 5-[4-Hydroxy-3-(3,4-dimethoxyphenylcarbamoyl)benzylidene]-3-[2-(4-chlorophenyl)ethyl]thiazolidine-2,4-dione]
84 | COc1ccc(NC(=O)c2cc(C=C3SC(=O)N(Cc4ccc([N+](=O)[O-])cc4)C3=O)ccc2O)cc1OC [compound 376, 5-[4-Hydroxy-3-(3,4-dimethoxyphenylcarbamoyl)benzylidene]-3-(4-nitrobenzyl)thiazolidine-2,4-dione]
81 | O=C(Nc1ccc(O)c(O)c1)c1cc(C=C2SC(=O)N(CCc3ccc(Cl)cc3)C2=O)ccc1O [compound 377]
86 | O=C(Nc1ccc(O)c(O)c1)c1cc(C=C2SC(=O)N(Cc3ccc([N+](=O)[O-])cc3)C2=O)ccc1O [compound 378]
97 | O=C(Nc1cc(C=C2SC(=O)N(Cc3ccc(Cl)c(Cl)c3)C2=O)ccc1O)c1ccc(O)cc1 [compound 382]
73 | COc1ccc(NC(=O)c2cc(C=C3SC(=O)N(Cc4cc(C(F)(F)F)cc(C(F)(F)F)c4)C3=O)ccc2O)cc1OC [compound 383, 5-[4-Hydroxy-3-(3,4-dimethoxyphenylcarbamoyl)benzylidene]-3-[3,5-bis(trifluoromethyl)benzyl]thiazolidine-2,4-dione]
74 | COc1ccc(COC(=O)c2cc(C=C3SC(=O)N(Cc4ccc(C(F)(F)F)cc4)C3=O)ccc2O)cc1 [compound 387, 5-[4-hydroxy-3-(4-methoxybenzyloxycarbonyl)benzylidene]-3-[4-(trifluoromethyl)benzyl]thiazolidine-2,4-dione]
65 | O=C(Nc1ccc(O)c(O)c1)c1cccc(C=C2SC(=O)N(Cc3ccc(Cl)c(Cl)c3)C2=O)c1 [compound 388, 5-[3-(3,4-Dihydroxyphenylcarbamoyl)benzylidene]-3-(3,4-dichlorobenzyl)thiazolidine-2,4-dione]
>99 | COc1ccc(NC(=O)c2cc(C=C3SC(=O)N(Cc4ccc(C(F)(F)F)cc4)C3=O)ccc2O)cc1OC [compound 391, 5-[4-Hydroxy-3-(3,4-dimethoxyphenylcarbamoyl)benzylidene]-3-[4-(trifluoromethyl)benzyl]thiazolidine-2,4-dione]
>99 | O=C(Nc1ccc(Cl)nc1)c1cc(C=C2SC(=O)N(Cc3ccc(C(F)(F)F)cc3)C2=O)ccc1O [compound 392]
95 | O=C(Nc1ccc(O)c(O)c1)c1cc(C=C2SC(=O)N(Cc3cc(Cl)cc(Cl)c3)C2=O)ccc1O [compound 396]
>99 | O=C(Nc1ccc(O)c(O)c1)c1cc(C=C2SC(=O)N(Cc3ccc(Cl)cc3Cl)C2=O)ccc1O [compound 398]
55 | COC(=O)c1ccc(NC(=O)c2cc(C=C3SC(=O)N(Cc4ccc(Cl)c(Cl)c4)C3=O)ccc2O)cc1OC [compound 405, 5-{4-hydroxy-3-[3-methoxy-4-(methoxycarbonyl)phenylcarbamoyl]-benzylidene}-3-(3,4-dichlorobenzyl)thiazolidine-2,4-dione]
